Values quoted from earlier work, collected in patent US11351185B2, “Use of isovalerylspiramycins as anti-cancer agents to inhibit metastasis” (priority 2020, dated 2022).

Columns and labels:
[1] = test system: in vivo cancer parameters; conditions: animal models; cited from earlier work
[2] = test system: human cancer lines; conditions: MCF-7, MDA-MB-231, HepG2, A549, H460, H1299, 786-0, 769-P, U251, A172, U937, HeLa, PC3, PANC-1, TE-1, SGC-7901, HT-29, HL-60; cited from earlier work

Row | Compound | in vivo cancer parameters such as tumor growth rate and relative tumor volume [1] | effect on proliferation in vitro of human cancer lines [2]
1 | CO[C@@H]1[C@@H](O[C@@H]2O[C@H](C)[C@@H](O[C@H]3C[C@@](C)(O)[C@@H](OC(=O)CC(C)C)[C@H](C)O3)[C@H](N(C)C)[C@H]2O)[C@@H](CC=O)C[C@@H](C)[C@@H](O[C@H]2CC[C@H](N(C)C)[C@@H](C)O2)/C=C/C=C/C[C@@H](C)OC(=O)C[C@H]1OC(C)=O [ISP II, 4″-isolvalerylspiramycin II] | reduction | inhibitory effect
2 | CCC(=O)O[C@@H]1CC(=O)O[C@H](C)C/C=C/C=C/[C@H](O[C@H]2CC[C@H](N(C)C)[C@@H](C)O2)[C@H](C)C[C@H](CC=O)[C@H](O[C@@H]2O[C@H](C)[C@@H](O[C@H]3C[C@@](C)(O)[C@@H](OC(=O)CC(C)C)[C@H](C)O3)[C@H](N(C)C)[C@H]2O)[C@H]1OC [ISP III, 4″-isolvalerylspiramycin III] | reduction | inhibitory effect
